Source: patent US20250129062A1, “AMORPHOUS SUBSTANCES, CRYSTALS, PHARMACEUTICAL COMPOSITIONS, PREPARATION METHODS AND USES OF THIOHYDANTOIN COMPOUND OR PHARMACEUTICALLY ACCEPTABLE SALT THEREOF” (SUZHOU KINTOR PHARMACEUTICALS, INC., priority 2021, published 2025)
Values after ≈ are worked out from the molar mass of the structure shown. Read-outs that look alike come from different tables or passages of the source.

Tests used:
[1] = Distribution of compound in sebaceous glands and blood of golden hamsters after single skin application; assay type: in vivo; conditions: golden hamsters, administration via skin application; listed as amorphous substance of the compound of formula I
Experimental: 6 male golden hamsters were selected for the experiment, and randomly divided evenly into 2 groups, with three golden hamsters per group. All animals were fasted overnight before administration, and were administered via a route of single application. Sampling was performed at specific time points after administration. Specific information on animal grouping, administration, sampling, etc. were detailed in Table 6.
The amorphous substance of the compound of formula I was weighed and placed in a 50 mL centrifugal tube. A mixed solvent (consisting of 75% v/v ethanol, 15% v/v glyceryl tri (2-ethylhexanoate) and 10% v/v glycerin) was added. After vortexing, heating was performed at 60° C. until the amorphous substance of the compound of formula I was completely dissolved. The amorphous substances of the compound of formula I in the two groups were prepared at 30 mg/mL and 100 mg/mL, respectively, and stored at room temperature in the dark.
After administration, blood was collected into blood collection tubes containing a heparin sodium anticoagulant at corresponding time points. Immediately after collection of whole blood, the blood collection tubes were gently shaken and placed on ice, and then centrifuged (4° C., 4000 rpm, 10 min). The supernatant plasma samples (plasma volume ≥100 μL) were collected, and stored in a refrigerator at about −80° C. The plasma samples were collected for 8 h for analysis.

[2] = Solubility of amorphous substance in solvent systems (supersaturated solution, oscillated 24 h at room temperature, HPLC); assay type: physicochemical; conditions: for solubility at 24 h: thermodynamic from solid
Experimental: The amorphous substance of the compound of formula I was prepared into supersaturated solutions with different solvents, and oscillated under a room temperature condition (a constant temperature). After oscillating for 24 h, sampling was performed, and the content of the sample was detected by HPLC under condition 1.
Condition 1: • Chromatographic column: C18 (150 mm×4.6 mm×3.5 μm); • Mobile phase: binary mobile phase system, mobile phase A was 0.1% formic acid in water, mobile phase B was acetonitrile; • Elution time: 68 min; • Elution mode: gradient elution (in the gradient elution process, mobile phase A had the maximum volume percentage of 95% and the minimum volume percentage of 10%); • Detection wavelength: 270 nm.

Cc1ncsc1-c1ccc(CNC(=O)[C@@H]2C[C@@H](O)CN2C(=O)[C@@H](NC(=O)COCCCCOc2ccc(-c3ccc(N4C(=S)N(c5ccc(C#N)c(C(F)(F)F)c5F)C(=O)C4(C)C)cn3)cc2)C(C)(C)C)cc1
distribution between sebaceous glands and blood after skin application [1]: can enter sebaceous glands but cannot enter blood | Solubility ([2]; Dehydrated alcohol 35%-propylene glycol 45%-water 20% (w/w)): >154310 µg/mL | Solubility ([2]; Dehydrated alcohol 40%-propylene glycol 50%-water 10% (w/w)): >64560 µg/mL | solubility at 24 h ([2]; dehydrated alcohol 10%-propylene glycol 20%-water 70% (w/w), aqueous with cosolvent or surfactant or cyclodextrin, Dehydrated alcohol 10%-propylene glycol 20%-water 70% (w/w), read-out: Solubility): 30 µg/mL (≈ 0.0288 mM) | solubility at 24 h ([2]; dehydrated alcohol 10%-propylene glycol 30%-water 60% (w/w), aqueous with cosolvent or surfactant or cyclodextrin, Dehydrated alcohol 10%-propylene glycol 30%-water 60% (w/w), read-out: Solubility): 450 µg/mL (≈ 0.431 mM) | solubility at 24 h ([2]; dehydrated alcohol 10%: water 90% (w/w), aqueous with cosolvent or surfactant or cyclodextrin, Dehydrated alcohol 10%: water 90% (w/w), read-out: 24 h solubility): 140 µg/mL (≈ 0.134 mM) | solubility at 24 h ([2]; dehydrated alcohol 20%-propylene glycol 20%-water 60% (w/w), aqueous with cosolvent or surfactant or cyclodextrin, Dehydrated alcohol 20%-propylene glycol 20%-water 60% (w/w), read-out: Solubility): 80 µg/mL (≈ 0.0767 mM) | solubility at 24 h ([2]; dehydrated alcohol 20%-propylene glycol 30%-water 50% (w/w), aqueous with cosolvent or surfactant or cyclodextrin, Dehydrated alcohol 20%-propylene glycol 30%-water 50% (w/w), read-out: Solubility): 440 µg/mL (≈ 0.422 mM) | solubility at 24 h ([2]; dehydrated alcohol 20%-propylene glycol 40%-water 40% (w/w), aqueous with cosolvent or surfactant or cyclodextrin, Dehydrated alcohol 20%-propylene glycol 40%-water 40% (w/w), read-out: Solubility): 3790 µg/mL (≈ 3.63 mM) | solubility at 24 h ([2]; dehydrated alcohol 20%-propylene glycol 50%-water 30% (w/w), aqueous with cosolvent or surfactant or cyclodextrin, Dehydrated alcohol 20%-propylene glycol 50%-water 30% (w/w), read-out: Solubility): 12600 µg/mL (≈ 12.1 mM) | solubility at 24 h ([2]; dehydrated alcohol 20%: water 80% (w/w), aqueous with cosolvent or surfactant or cyclodextrin, Dehydrated alcohol 20%: water 80% (w/w), read-out: 24 h solubility): 140 µg/mL (≈ 0.134 mM) | solubility at 24 h ([2]; dehydrated alcohol 30%: water 70% (w/w), aqueous with cosolvent or surfactant or cyclodextrin, Dehydrated alcohol 30%: water 70% (w/w), read-out: 24 h solubility): 110 µg/mL (≈ 0.105 mM) | solubility at 24 h ([2]; dehydrated alcohol 35%-propylene glycol 45%-water 20% (w/w), aqueous with cosolvent or surfactant or cyclodextrin, Dehydrated alcohol 35%-propylene glycol 45%-water 20% (w/w), read-out: Solubility): > 154000 µg/mL | solubility at 24 h ([2]; dehydrated alcohol 40%-propylene glycol 50%-water 10% (w/w), aqueous with cosolvent or surfactant or cyclodextrin, Dehydrated alcohol 40%-propylene glycol 50%-water 10% (w/w), read-out: Solubility): > 64600 µg/mL | solubility at 24 h ([2]; dehydrated alcohol 40%: water 60% (w/w), aqueous with cosolvent or surfactant or cyclodextrin, Dehydrated alcohol 40%: water 60% (w/w), read-out: 24 h solubility): 510 µg/mL (≈ 0.489 mM) | solubility at 24 h ([2]; dehydrated alcohol 60%: water 40% (w/w), organic solvent or mixture, Dehydrated alcohol 60%: water 40% (w/w), read-out: 24 h solubility): 26000 µg/mL (≈ 24.9 mM) | solubility at 24 h ([2]; dehydrated alcohol 70%: water 30% (w/w), organic solvent or mixture, Dehydrated alcohol 70%: water 30% (w/w), read-out: 24 h solubility): > 34900 µg/mL | solubility at 24 h ([2]; dehydrated alcohol 80%: water 20% (w/w), organic solvent or mixture, Dehydrated alcohol 80%: water 20% (w/w), read-out: 24 h solubility): > 42100 µg/mL | solubility at 24 h ([2]; dehydrated alcohol 90%: water 10% (w/w), organic solvent or mixture, Dehydrated alcohol 90%: water 10% (w/w), read-out: 24 h solubility): > 77700 µg/mL | solubility at 24 h ([2]; dehydrated alcohol, organic solvent or mixture, solvent: Dehydrated alcohol, read-out: 24 h solubility): > 54000 µg/mL | solubility at 24 h ([2]; dehydrated alcohol-PEG400-water solvent mixture, aqueous with cosolvent or surfactant or cyclodextrin, Dehydrated alcohol 10%-PEG400 10%-water 80% (w/w), read-out: Solubility): 10 µg/mL (≈ 0.00959 mM) | solubility at 24 h ([2]; dehydrated alcohol-PEG400-water solvent mixture, aqueous with cosolvent or surfactant or cyclodextrin, Dehydrated alcohol 10%-PEG400 20%-water 70% (w/w), read-out: Solubility): 20 µg/mL (≈ 0.0192 mM) | solubility at 24 h ([2]; dehydrated alcohol-PEG400-water solvent mixture, aqueous with cosolvent or surfactant or cyclodextrin, Dehydrated alcohol 20%-PEG400 20%-water 60% (w/w), read-out: Solubility): 160 µg/mL (≈ 0.153 mM) | solubility at 24 h ([2]; dehydrated alcohol-PEG400-water solvent mixture, aqueous with cosolvent or surfactant or cyclodextrin, Dehydrated alcohol 20%-PEG400 30%-water 50% (w/w), read-out: Solubility): 910 µg/mL (≈ 0.872 mM) | solubility at 24 h ([2]; dehydrated alcohol-PEG400-water solvent mixture, aqueous with cosolvent or surfactant or cyclodextrin, Dehydrated alcohol 20%-PEG400 40%-water 40% (w/w), read-out: Solubility): 7900 µg/mL (≈ 7.57 mM) | solubility at 24 h ([2]; dehydrated alcohol-PEG400-water solvent mixture, aqueous with cosolvent or surfactant or cyclodextrin, Dehydrated alcohol 30%-PEG400 10%-water 60% (w/w), read-out: Solubility): 310 µg/mL (≈ 0.297 mM) | solubility at 24 h ([2]; dehydrated alcohol-PEG400-water solvent mixture, aqueous with cosolvent or surfactant or cyclodextrin, Dehydrated alcohol 30%-PEG400 20%-water 50% (w/w), read-out: Solubility): 1950 µg/mL (≈ 1.87 mM) | solubility at 24 h ([2]; dehydrated alcohol-PEG400-water solvent mixture, aqueous with cosolvent or surfactant or cyclodextrin, Dehydrated alcohol 30%-PEG400 30%-water 40% (w/w), read-out: Solubility): 11600 µg/mL (≈ 11.1 mM) | solubility at 24 h ([2]; dehydrated alcohol-PEG400-water solvent mixture, aqueous with cosolvent or surfactant or cyclodextrin, Dehydrated alcohol 30%-PEG400 40%-water 30% (w/w), read-out: Solubility): 89200 µg/mL (≈ 85.5 mM) | solubility at 24 h ([2]; dehydrated alcohol-PEG400-water solvent mixture, aqueous with cosolvent or surfactant or cyclodextrin, Dehydrated alcohol 35%-PEG400 30%-water 35% (w/w), read-out: Solubility): 35700 µg/mL (≈ 34.2 mM) | solubility at 24 h ([2]; dehydrated alcohol-PEG400-water solvent mixture, aqueous with cosolvent or surfactant or cyclodextrin, Dehydrated alcohol 35%-PEG400 35%-water 30% (w/w), read-out: Solubility): 117000 µg/mL (≈ 112 mM) | solubility at 24 h ([2]; dehydrated alcohol-PEG400-water solvent mixture, aqueous with cosolvent or surfactant or cyclodextrin, Dehydrated alcohol 35%-PEG400 40%-water 25% (w/w), read-out: Solubility): > 181000 µg/mL | solubility at 24 h ([2]; dehydrated alcohol-PEG400-water solvent mixture, aqueous with cosolvent or surfactant or cyclodextrin, Dehydrated alcohol 35%-PEG400 45%-water 20% (w/w), read-out: Solubility): > 258000 µg/mL | solubility at 24 h ([2]; dehydrated alcohol-PEG400-water solvent mixture, aqueous with cosolvent or surfactant or cyclodextrin, Dehydrated alcohol 40%-PEG400 10%-water 50% (w/w), read-out: Solubility): 3350 µg/mL (≈ 3.21 mM) | solubility at 24 h ([2]; dehydrated alcohol-PEG400-water solvent mixture, aqueous with cosolvent or surfactant or cyclodextrin, Dehydrated alcohol 40%-PEG400 20%-water 40% (w/w), read-out: Solubility): 17400 µg/mL (≈ 16.7 mM) | solubility at 24 h ([2]; dehydrated alcohol-PEG400-water solvent mixture, aqueous with cosolvent or surfactant or cyclodextrin, Dehydrated alcohol 40%-PEG400 30%-water 30% (w/w), read-out: Solubility): 111000 µg/mL (≈ 106 mM) | solubility at 24 h ([2]; dehydrated alcohol-PEG400-water solvent mixture, aqueous with cosolvent or surfactant or cyclodextrin, Dehydrated alcohol 40%-PEG400 40%-water 20% (w/w), read-out: Solubility): > 49100 µg/mL | solubility at 24 h ([2]; dehydrated alcohol-PEG400-water solvent mixture, aqueous with cosolvent or surfactant or cyclodextrin, Dehydrated alcohol 50%-PEG400 30%-water 20% (w/w), read-out: Solubility): > 49700 µg/mL | solubility at 24 h ([2]; dehydrated alcohol-PEG400-water solvent mixture, aqueous with cosolvent or surfactant or cyclodextrin, Dehydrated alcohol 50%-PEG400 40%-water 10% (w/w), read-out: Solubility): > 48500 µg/mL | solubility at 24 h ([2]; dehydrated alcohol-propylene glycol-water solvent mixture, aqueous with cosolvent or surfactant or cyclodextrin, Dehydrated alcohol 10%-propylene glycol 40%-water 50% (w/w), read-out: Solubility): 540 µg/mL (≈ 0.518 mM) | solubility at 24 h ([2]; dehydrated alcohol-propylene glycol-water solvent mixture, aqueous with cosolvent or surfactant or cyclodextrin, Dehydrated alcohol 10%-propylene glycol 50%-water 40% (w/w), read-out: Solubility): 1490 µg/mL (≈ 1.43 mM) | solubility at 24 h ([2]; dehydrated alcohol-propylene glycol-water solvent mixture, aqueous with cosolvent or surfactant or cyclodextrin, Dehydrated alcohol 20%-propylene glycol 10%-water 70% (w/w), read-out: Solubility): 40 µg/mL (≈ 0.0383 mM) | solubility at 24 h ([2]; dehydrated alcohol-propylene glycol-water solvent mixture, aqueous with cosolvent or surfactant or cyclodextrin, Dehydrated alcohol 30%-propylene glycol 10%-water 60% (w/w), read-out: Solubility): 200 µg/mL (≈ 0.192 mM) | solubility at 24 h ([2]; dehydrated alcohol-propylene glycol-water solvent mixture, aqueous with cosolvent or surfactant or cyclodextrin, Dehydrated alcohol 30%-propylene glycol 20%-water 50% (w/w), read-out: Solubility): 2520 µg/mL (≈ 2.42 mM) | solubility at 24 h ([2]; dehydrated alcohol-propylene glycol-water solvent mixture, aqueous with cosolvent or surfactant or cyclodextrin, Dehydrated alcohol 30%-propylene glycol 30%-water 40% (w/w), read-out: Solubility): 6390 µg/mL (≈ 6.13 mM) | solubility at 24 h ([2]; dehydrated alcohol-propylene glycol-water solvent mixture, aqueous with cosolvent or surfactant or cyclodextrin, Dehydrated alcohol 30%-propylene glycol 40%-water 30% (w/w), read-out: Solubility): 25200 µg/mL (≈ 24.2 mM) | solubility at 24 h ([2]; dehydrated alcohol-propylene glycol-water solvent mixture, aqueous with cosolvent or surfactant or cyclodextrin, Dehydrated alcohol 30%-propylene glycol 50%-water 20% (w/w), read-out: Solubility): > 178000 µg/mL | solubility at 24 h ([2]; dehydrated alcohol-propylene glycol-water solvent mixture, aqueous with cosolvent or surfactant or cyclodextrin, Dehydrated alcohol 35%-propylene glycol 35%-water 30% (w/w), read-out: Solubility): 52300 µg/mL (≈ 50.1 mM) | solubility at 24 h ([2]; dehydrated alcohol-propylene glycol-water solvent mixture, aqueous with cosolvent or surfactant or cyclodextrin, Dehydrated alcohol 35%-propylene glycol 40%-water 25% (w/w), read-out: Solubility): 62700 µg/mL (≈ 60.1 mM)
